Values after ≈ are worked out from the molar mass of the structure shown. Read-outs that look alike come from different tables or passages of the source.
Tests used:
[1] = system: VE 149 (VanB); experiment: MIC, VanB-type VRE strain VE 149; assay type: cell-based, Enterococcus; conditions: Enterococcus; VE 149, VanB; read-out: MIC
Procedure: (§1) The minimum inhibitory concentration (MIC) was determined using the broth microdilution method according to the antimicrobial susceptibility testing standards of the clinical and laboratory standards institute ([Clinical and Laboratory Standards Institute [CLSI], 2012]). Ultrapure water and non-inoculated broth were used as controls. In one case, a final concentration of 10 μM vancomycin was included with the vancomycin analog or control antibiotic.

[2] = system: 33 clinical VRE isolates; experiment: MIC against a set of 33 clinical VRE isolates (range, MIC50, TI); assay type: cell-based, Enterococcus faecalis
Procedure: as §1

[3] = system: Murine leukemia (L1210) cells; experiment: Cytostatic activity, L1210 cell proliferation; assay type: cell-based; conditions: Mus musculus, L1210, 48 h; mean ± SD of three experiments; highest concentration tested 250 µM; 2 days; read-out: Toxicity (IC50) L1210
Outline: (§2)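 Readout: Coulter cell number after drug exposure at 37°C. Durations differ by line (L1210 2 days; CEM 3 days; HeLa 4 days). Stock suspension 300,000–500,000 cells/mL, diluted by mixing with compound. Endpoint: IC50 vs negative control.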

[4] = system: MRSA KS89; experiment: MIC, broth microdilution, MRSA KS89; assay type: cell-based, Staphylococcus aureus
Outline: (§3)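 Assayed by broth microdilution under CLSI antimicrobial testing rules. One case paired the analog or control drug with vancomycin at a 10 μM final concentration; water and inoculum-free broth were controls.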

[5] = system: E. faecalis VRE 29; experiment: MIC, broth microdilution, vancomycin-resistant E. faecalis VRE 29 (VanA); assay type: cell-based, Enterococcus faecalis
Outline: as §3

[6] = system: VE 148 (VanB); experiment: MIC, VanB-type VRE strain VE 148; assay type: cell-based, Enterococcus; conditions: Enterococcus; VE 148, VanB; read-out: MIC
Procedure: as §1

[7] = system: MRSA KS2; experiment: MIC, broth microdilution, MRSA KS2; assay type: cell-based, Staphylococcus aureus
Outline: as §3

[8] = system: human T-lymphocyte (CEM) cells; experiment: Cytostatic activity, CEM cell proliferation; assay type: cell-based; conditions: Homo sapiens, CCRF-CEM, 72 h; mean ± SD of three experiments; highest concentration tested 250 µM; 3 days; read-out: Toxicity (IC50) CEM
Outline: as §2

[9] = system: VE 82 (VanC1); experiment: MIC, VanC1-type VRE strain VE 82; assay type: cell-based, Enterococcus gallinarum; conditions: Enterococcus gallinarum; VE 82, VanC1; read-out: MIC
Procedure: as §1

[10] = system: MRSA; experiment: Time-kill curves, MRSA at 4x MIC; assay type: cell-based, Staphylococcus aureus; conditions: 1-24 h
Procedure: Time-kill curves were determined based on the CLSI guidelines ([Clinical and Laboratory Standards Institute [CLSI], 1999]). Single colonies grown overnight at 37°C were resuspended in Ca^2+-adjusted (0.05 mg/mL) Mueller Hinton broth up to an optical density (625 nm) of 0.08–00.10 (corresponding to the 0.5 McFarland standard), followed by a 10-fold dilution in the same broth. Subsequently, 0.2 mL inoculum was added to 1.7 mL Ca^2+-adjusted (0.05 mg/mL) Mueller Hinton broth, followed by addition of the antibacterial compound (0.1 mL). The final concentration of the antibacterial compound corresponded to the 4x MIC value for that compound. For the antibiotic-free control, the compound was replaced by an equal volume of ultrapure water. The final inoculum concentration was approximately 10^6 CFU/mL. The cultures were continuously shaken at 37°C. After 1, 2, 4, 6, 8, and 24 h, a 0.1 mL aliquot was removed, serially diluted in cold 0.9% w/v NaCl and plated on BHI (VRE) and LB (MRSA) agar plates. Plates were incubated overnight at 37°C and colonies were counted.

[11] = system: S. aureus VISA/HIP5827; experiment: MIC, broth microdilution, vancomycin-intermediate S. aureus VISA HIP5827; assay type: cell-based, Staphylococcus aureus
Outline: as §3

[12] = system: MRSA; experiment: Minimum bactericidal concentration against MRSA; assay type: cell-based, Staphylococcus aureus
Procedure: Plates were incubated overnight at 37°C and colony growth was inspected.

[13] = system: S. aureus VSSA (ATCC 6538); experiment: MIC, broth microdilution, vancomycin-sensitive S. aureus (VSSA/MSSA, ATCC 6538); assay type: cell-based, Staphylococcus aureus
Outline: as §3

[14] = system: 24 clinical MRSA isolates; experiment: MIC against a set of 24 clinical MRSA isolates (range, MIC50, TI); assay type: cell-based, Staphylococcus aureus
Procedure: as §1

[15] = system: MRSA KS1; experiment: MIC, broth microdilution, MRSA KS1; assay type: cell-based, Staphylococcus aureus
Outline: as §3

[16] = system: S. aureus VRSA; experiment: MIC, broth microdilution, vancomycin-resistant S. aureus (VRSA); assay type: cell-based, Staphylococcus aureus
Outline: as §3

[17] = system: L1210, CEM and HeLa cell lines; experiment: Cytostatic activity, average or summary over L1210, CEM and HeLa; assay type: cell-based
Outline: as §2

[18] = system: MRSA KS6; experiment: MIC, broth microdilution, MRSA KS6; assay type: cell-based, Staphylococcus aureus
Outline: as §3

[19] = system: E. faecalis VRE 53; experiment: MIC, broth microdilution, vancomycin-resistant E. faecalis VRE 53 (VanA); assay type: cell-based, Enterococcus faecalis
Outline: as §3

[20] = system: E. faecalis VRE 6; experiment: MIC, broth microdilution, vancomycin-resistant E. faecalis VRE 6 (VanA); assay type: cell-based, Enterococcus faecalis
Outline: as §3

[21] = system: VE 157 (VanB); experiment: MIC, VanB-type VRE strain VE 157; assay type: cell-based, Enterococcus; conditions: Enterococcus; VE 157, VanB; read-out: MIC
Procedure: as §1

[22] = system: E. faecalis VRE 37; experiment: MIC, broth microdilution, vancomycin-resistant E. faecalis VRE 37 (VanA); assay type: cell-based, Enterococcus faecalis
Outline: as §3

[23] = system: VE 150 (VanB); experiment: MIC, VanB-type VRE strain VE 150; assay type: cell-based, Enterococcus; conditions: Enterococcus; VE 150, VanB; read-out: MIC
Procedure: as §1

[24] = system: VE 152 (VanB); experiment: MIC, VanB-type VRE strain VE 152; assay type: cell-based, Enterococcus; conditions: Enterococcus; VE 152, VanB; read-out: MIC
Procedure: as §1

[25] = system: human cervix carcinoma (HeLa) cells; experiment: Cytostatic activity, HeLa cell proliferation; assay type: cell-based; conditions: Homo sapiens, HeLa, 96 h; mean ± SD of three experiments; highest concentration tested 250 µM; 4 days; read-out: Toxicity (IC50) HeLa
Outline: as §2

[26] = system: E. faecalis VSE 1; experiment: MIC, broth microdilution, vancomycin-sensitive E. faecalis (VSE 1); assay type: cell-based, Enterococcus faecalis
Outline: as §3

`CC(=O)NC[C@H]1CN(c2ccc(N3CCOCC3)c(F)c2)C(=O)O1` [Linezolid, reference compound] was tested, and the MIC [1] was 12.5 µM (≈ 4.22 µg/mL), the “MIC Range” value ([2]; 33 clinical VRE isolates) was 3.13 to 50 µM and the MIC50 ([2]; Enterococcus, median MIC, 33 clinical VRE isolates, read-out: MIC50) was 6.25 µM (≈ 2.11 µg/mL). The “TI (IC50/MIC50)” value ([2]; in vitro therapeutic index, VRE) was 33, the IC50 [3] was 157 ± 7 µM and the “MIC-fold improvement vs. vancomycin” value ([4]; MRSA KS8 (head; KS89 in title), ratio of MIC of vancomycin and MIC of analogue) was 0.1. For the same molecule, the MIC ([4]; Staphylococcus aureus, MRSA) was 6.25 µM (≈ 2.11 µg/mL), the MIC ([5]; Enterococcus faecalis, VRE) was 6.25 µM (≈ 2.11 µg/mL) and the “MIC-fold improvement vs. vancomycin” value ([5]; VRE 29, ratio of MIC of vancomycin and MIC of analogue) was 64. For the same molecule, the MIC [6] was 12.5 µM (≈ 4.22 µg/mL), the “MIC-fold improvement vs. vancomycin” value ([7]; MRSA KS2, ratio of MIC of vancomycin and MIC of analogue) was 0.1 and the MIC ([7]; Staphylococcus aureus, MRSA) was 6.25 µM (≈ 2.11 µg/mL). For the same molecule, the IC50 [8] was over 250 µM, the MIC [9] was 12.5 µM (≈ 4.22 µg/mL) and the time-kill curve character [10] was “typical bacteriostatic time-kill curve”. The MIC ([11]; Staphylococcus aureus, VISA) was 3.13 µM (≈ 1.06 µg/mL), the “MIC-fold improvement vs. vancomycin” value ([11]; VISA/HIP5827, ratio of MIC of vancomycin and MIC of analogue) was 2 and the “MBC relative to MIC” value [12] was “more than four times higher than the corresponding MIC”. The MIC ([13]; ATCC6538, Staphylococcus aureus VSSA, read-out: MIC) was over 3.13 µM, the “MIC-fold improvement vs. vancomycin” value ([13]; VSSA, ratio of MIC of vancomycin and MIC of analogue) was under 0.2 and the “MIC Range” value ([14]; 24 clinical MRSA isolates) was 6.25 to 25 µM. For the same molecule, the MIC50 ([14]; Staphylococcus aureus, median MIC, 24 clinical MRSA isolates, read-out: MIC50) was 25 µM (≈ 8.43 µg/mL), the “TI (IC50/MIC50)” value ([14]; in vitro therapeutic index, MRSA) was 8 and the “MIC-fold improvement vs. vancomycin” value ([15]; MRSA KS1, ratio of MIC of vancomycin and MIC of analogue) was 0.05. For the same molecule, the MIC ([15]; Staphylococcus aureus MRSA KS1, read-out: MIC) was 12.5 µM (≈ 4.22 µg/mL), the MIC ([16]; Staphylococcus aureus VRSA) was 6.25 µM (≈ 2.11 µg/mL) and the “MIC-fold improvement vs. vancomycin” value ([16]; VRSA, ratio of MIC of vancomycin and MIC of analogue) was 16. For the same molecule, the IC50 ([17]; average IC50 used for TI in Table S5, >250 entered as 250, read-out: IC50) was 208 µM, the IC50 ([17]; average of L1210, CEM and HeLa, read-out: Toxicity (IC50) Average) was 208 µM and the “MIC-fold improvement vs. vancomycin” value ([18]; MRSA KS6, ratio of MIC of vancomycin and MIC of analogue) was 0.1. For the same molecule, the MIC ([18]; Staphylococcus aureus, MRSA) was 6.25 µM (≈ 2.11 µg/mL), the MIC ([19]; Enterococcus faecalis, VRE) was 6.25 µM (≈ 2.11 µg/mL) and the “MIC-fold improvement vs. vancomycin” value ([19]; VRE 53, ratio of MIC of vancomycin and MIC of analogue) was 64. For the same molecule, the MIC ([20]; Enterococcus faecalis VRE 6 (vancomycin-resistant), read-out: MIC) was 12.5 µM (≈ 4.22 µg/mL), the “MIC-fold improvement vs. vancomycin” value ([20]; VRE 6, ratio of MIC of vancomycin and MIC of analogue) was 16 and the MIC [21] was 12.5 µM (≈ 4.22 µg/mL). The MIC ([22]; Enterococcus faecalis, VRE) was 6.25 µM (≈ 2.11 µg/mL), the “MIC-fold improvement vs. vancomycin” value ([22]; VRE 37, ratio of MIC of vancomycin and MIC of analogue) was 64 and the MIC [23] was 12.5 µM (≈ 4.22 µg/mL). For the same molecule, the MIC [24] was 12.5 µM (≈ 4.22 µg/mL), the IC50 [25] was 216 ± 48 µM and the MIC ([26]; VSE1, Enterococcus faecalis VSE 1 (vancomycin-sensitive), read-out: MIC) was over 3.13 µM. The “MIC-fold improvement vs. vancomycin” value ([26]; VSE 1, ratio of MIC of vancomycin and MIC of analogue) was under 0.5.
